Here are results for twelve molecules from patent US8906925B2, “Pyrido[4,3-B]indoles containing rigid moieties” (Medivation Technologies, Inc., priority 2008, dated 2014).

“And” between values parts separate entries of the source, which are not always exact repeats. Equal values may be shown once.

The term inhibition denotes the relative decrease from the control value, in per cent.

Assay [1] addresses T1, human recombinant serotonin (5-Hydroxytryptamine) 5-HT2A receptor (Homo sapiens, UniProt P28223).
T1 construct: expressed in transfected cells; host or cells: Chinese hamster ovary (CHO-K1) cells
The assay can be described thus: Serotonin 5-HT2A radioligand binding ([3H]Ketanserin). The conditions noted are these: for inhibition at 1 µM: read-out: Inhibition of ligand binding, Serotonin 5-HT2A (percent inhibition of specific binding), compound at 1 μM; for inhibition at 0.1 µM: read-out: Inhibition of ligand binding, Serotonin 5-HT2A (percent inhibition of specific binding), compound at 0.1 μM. On the procedure:
Compounds of the invention were incubated with 0.5 nM [^3H]Ketanserin for 60 min. at 25° C. Non-specific binding was estimated in the presence of 1 μM Mianserin. Receptor proteins were filtered and washed, the filters were then counted to determine [^3H]Ketanserin specifically bound.

In assay [2] the target is T2, human recombinant adrenergic α1D receptor (Homo sapiens, UniProt P25100).
T2 construct: expressed in transfected cells; host or cells: human embryonic kidney (HEK-293) cells
T2 sequence (P25100 1-572): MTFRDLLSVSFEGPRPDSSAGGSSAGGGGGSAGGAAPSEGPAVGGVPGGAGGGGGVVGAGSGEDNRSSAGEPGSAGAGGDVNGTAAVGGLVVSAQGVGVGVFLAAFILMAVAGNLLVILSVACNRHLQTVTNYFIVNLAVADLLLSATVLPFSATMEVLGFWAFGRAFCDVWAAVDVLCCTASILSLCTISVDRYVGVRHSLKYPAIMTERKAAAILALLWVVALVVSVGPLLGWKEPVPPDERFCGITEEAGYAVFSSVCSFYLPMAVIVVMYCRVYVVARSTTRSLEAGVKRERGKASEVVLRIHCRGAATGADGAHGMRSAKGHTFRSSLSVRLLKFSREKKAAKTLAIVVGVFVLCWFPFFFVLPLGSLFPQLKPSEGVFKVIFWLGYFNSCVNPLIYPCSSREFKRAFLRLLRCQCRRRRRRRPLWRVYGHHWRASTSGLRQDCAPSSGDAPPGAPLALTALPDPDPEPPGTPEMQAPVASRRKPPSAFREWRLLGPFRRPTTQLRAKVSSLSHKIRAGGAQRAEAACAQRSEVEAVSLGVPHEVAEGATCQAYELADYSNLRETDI
The assay can be described thus: Adrenergic α1D radioligand binding ([3H]Prozosin). The conditions noted are these: percent inhibition of specific binding, compound at 1 μM; for inhibition at 1 µM: read-out: Inhibition of ligand binding, Adrenergic α1D. How it is done: Compounds of invention were incubated with 0.6 nM [^3H]Prozosin for 60 min. at 25° C. Non-specific binding was estimated in the presence of 10 μM phentolamine. Receptor proteins were filtered and washed, the filters were then counted to determine [^3H]Prozosin specifically bound. Compounds were screened at 1 μM or lower, using 1% DMSO as vehicle. Biochemical assay results are presented as the percent inhibition of specific binding in Table 9.

Assay [3] has as its target histamine receptor H1 (Homo sapiens, UniProt P35367). Briefly: Histamine H1 radioligand binding ([3H]Pyrilamine). Particulars: for inhibition at 1 µM: read-out: Histamine Binding (1 μM) H1, percent inhibition of specific binding, 1 μM. The method in brief:
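Values are percent inhibition of specific [3H]pyrilamine (1.2 nM) binding with compounds at ≤1 μM (1% DMSO vehicle); 180 min incubation at 25 °C, pH 7.4 Tris buffer, on CHO-expressed human H1 receptor; 1 μM pyrilamine defined nonspecific binding, bound ligand counted after filtration.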

The target of assay [4] is human dopamine D2L receptor (Homo sapiens, UniProt P14416). Briefly: Dopamine D2L radioligand binding ([3H]Spiperone). The conditions noted are these: percent inhibition of specific binding, compound at 1 μM; for inhibition at 1 µM: read-out: Inhibition of ligand binding, Dopamine D2L; for Inhibition of ligand binding, Dopamine D2L: 1 µM. The source says:
Non-specific binding was estimated in the presence of […] Haloperidol. Receptor proteins were filtered and washed, the filters were then counted to determine [^3H]Spiperone specifically bound. […] Biochemical assay results are presented as the percent inhibition of specific binding in Table 9.

Assay [5] has as its target T3, human recombinant serotonin (5-Hydroxytryptamine) 5-HT2C receptor (Homo sapiens, UniProt P28335).
T3 construct: expressed in transfected cells; host or cells: Chinese hamster ovary (CHO-K1) cells
T3 sequence (P28335 33-458): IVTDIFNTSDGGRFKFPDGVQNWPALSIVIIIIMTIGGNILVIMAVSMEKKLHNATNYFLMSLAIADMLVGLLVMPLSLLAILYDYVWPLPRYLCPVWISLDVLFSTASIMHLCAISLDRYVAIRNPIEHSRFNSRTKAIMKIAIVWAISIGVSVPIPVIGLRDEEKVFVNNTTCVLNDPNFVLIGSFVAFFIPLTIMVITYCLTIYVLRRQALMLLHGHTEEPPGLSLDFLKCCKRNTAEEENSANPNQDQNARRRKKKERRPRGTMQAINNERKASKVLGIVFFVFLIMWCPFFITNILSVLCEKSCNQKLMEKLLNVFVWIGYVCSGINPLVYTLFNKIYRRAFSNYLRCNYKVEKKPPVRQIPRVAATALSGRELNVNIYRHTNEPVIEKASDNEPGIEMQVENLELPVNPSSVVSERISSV
The assay can be described thus: Serotonin 5-HT2C radioligand binding ([3H]Mesulergine). Particulars: for inhibition at 1 µM / inhibition at 0.1 µM: read-out: Inhibition of ligand binding, Serotonin 5-HT2C (percent inhibition of specific binding); for inhibition at 0.1 µM: compound at 0.1 μM. The method in brief:
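Compounds tested at 1 μM or lower (1% DMSO vehicle) for displacement of 1 nM [3H]Mesulergine over 60 min at 25° C. Specific binding determined by filtration counting, with 1 μM Mianserin defining non-specific binding; values are percent inhibition.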

Chain of human dopamine D2L receptor (P14416 whole entry): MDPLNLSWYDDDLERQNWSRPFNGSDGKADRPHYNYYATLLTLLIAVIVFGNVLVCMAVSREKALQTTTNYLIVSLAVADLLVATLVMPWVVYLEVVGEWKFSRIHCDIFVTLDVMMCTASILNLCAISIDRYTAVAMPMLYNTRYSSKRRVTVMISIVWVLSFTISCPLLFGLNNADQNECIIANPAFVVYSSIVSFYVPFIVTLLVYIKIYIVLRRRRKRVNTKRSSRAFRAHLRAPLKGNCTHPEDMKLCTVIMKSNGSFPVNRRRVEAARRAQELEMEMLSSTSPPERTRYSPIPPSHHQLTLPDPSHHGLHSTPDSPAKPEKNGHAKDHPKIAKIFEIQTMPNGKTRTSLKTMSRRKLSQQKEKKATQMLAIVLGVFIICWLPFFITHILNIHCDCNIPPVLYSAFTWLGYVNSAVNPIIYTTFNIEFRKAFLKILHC
Chain of histamine receptor H1 (P35367 whole entry): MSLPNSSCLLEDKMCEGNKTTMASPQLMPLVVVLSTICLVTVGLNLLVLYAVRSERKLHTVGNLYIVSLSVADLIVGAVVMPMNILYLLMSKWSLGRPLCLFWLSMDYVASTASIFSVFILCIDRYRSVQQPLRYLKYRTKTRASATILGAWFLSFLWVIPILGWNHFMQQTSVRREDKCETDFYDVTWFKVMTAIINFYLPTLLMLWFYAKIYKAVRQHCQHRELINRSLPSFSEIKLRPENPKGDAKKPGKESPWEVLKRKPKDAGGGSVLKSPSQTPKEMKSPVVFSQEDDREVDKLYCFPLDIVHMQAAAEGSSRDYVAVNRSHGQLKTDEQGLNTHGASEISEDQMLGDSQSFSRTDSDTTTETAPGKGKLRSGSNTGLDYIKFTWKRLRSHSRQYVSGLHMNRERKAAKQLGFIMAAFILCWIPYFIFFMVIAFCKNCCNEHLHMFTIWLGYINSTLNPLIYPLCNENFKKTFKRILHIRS
T1 sequence (P28223 whole entry): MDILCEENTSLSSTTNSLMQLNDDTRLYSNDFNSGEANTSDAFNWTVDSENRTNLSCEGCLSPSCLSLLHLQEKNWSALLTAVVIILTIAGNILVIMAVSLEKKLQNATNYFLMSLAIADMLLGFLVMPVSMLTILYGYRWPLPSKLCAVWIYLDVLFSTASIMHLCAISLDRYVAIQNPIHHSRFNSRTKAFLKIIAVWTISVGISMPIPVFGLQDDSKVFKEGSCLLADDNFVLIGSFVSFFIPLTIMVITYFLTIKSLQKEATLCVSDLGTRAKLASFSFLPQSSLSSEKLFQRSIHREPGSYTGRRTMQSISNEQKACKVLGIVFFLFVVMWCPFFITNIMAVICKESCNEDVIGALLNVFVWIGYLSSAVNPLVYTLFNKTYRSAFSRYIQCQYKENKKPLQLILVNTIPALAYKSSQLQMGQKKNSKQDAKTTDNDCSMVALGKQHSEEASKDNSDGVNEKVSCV

With `Cc1ccc2c(c1)c1c(n2/C=C(\CC(=O)O)c2ccc(F)cc2)CCN(C)C1` [Compound 209, (E)-4-(2,8-dimethyl-3,4-dihydro-1H-pyrido[4,3-b]indol-5(2H)-yl)-3-(4-fluorophenyl)but-3-enoic acid], the inhibition at 1 µM was found to be 93% in assay [1]; 21% in assay [2]; 9% in assay [3]; 7% in assay [4]; 95% in assay [5] (compound at 1 μM).
The corresponding values for `COc1ccc(C(C)(O)Cn2c3c(c4cc(Cl)ccc42)CN(C)CC3)cc1` (centres unmarked) [Compound 57, 1-(8-chloro-1,2,3,4-tetrahydro-2-methylpyrido[4,3-b]indol-5-yl)-2-(4-methoxyphenyl)propan-2-ol] are 95%, 84%, 41%, 22% and 86%.
As to `CC(=Cn1c2c(c3cc(Cl)ccc31)CN(C)CC2)c1ccc(Cl)cc1Cl` (stereo in doubt) [Compound 111, (Z)-8-chloro-5-(2-(2,4-dichlorophenyl)prop-1-enyl)-2,3,4,5-tetrahydro-2-methyl-1H-pyrido[4,3-b]indole], the inhibition at 0.1 µM in assay [1] is 86%; in assay [5], 95%. Also, the inhibition at 1 µM was determined as 99% in assay [1] and 100% in assay [5] (compound at 1 μM). Further, in assay [2] (1 µM), the “Inhibition of ligand binding, Adrenergic α1D” value is on record as 47%. The “Histamine Binding (1 μM) H1, percent inhibition of specific binding” value in assay [3] is 73% and 74%. In addition, the “Inhibition of ligand binding, Dopamine D2L” value (“Inhibition … Dopamine D2L” for short) in assay [4] was 27% and 29%.
As for `Cc1ccc2c(c1)c1c(n2CC(O)(c2ccc(F)cc2)C2CCCCC2)CCN(C)C1` (centres unmarked) [Compound 171, 1-cyclohexyl-2-(2,8-dimethyl-3,4-dihydro-1H-pyrido[4,3-b]indol-5(2H)-yl)-1-(4-fluorophenyl)ethanol], the inhibition at 0.1 µM in assay [1] worked out at 60%; in assay [5], 51%. For the same molecule, the inhibition at 1 µM in assay [1] came to 97%; in assay [2] it was 49%; in assay [3], 13%; in assay [4] it was 12%; in assay [5] (compound at 1 μM) it was 98%.
In the case of `C/C(=C\n1c2c(c3cc(C)ccc31)CN(C)CC2)c1ccc(Cl)cc1` [Compound 211, (E)-5-(2-(4-chlorophenyl)prop-1-enyl)-2,8-dimethyl-2,3,4,5-tetrahydro-1H-pyrido[4,3-b]indole], the inhibition at 0.1 µM was determined as 97% in assay [1] and 98% in assay [5]. Further, the inhibition at 1 µM in assay [1] was found to be 99%; in assay [2], 96%; in assay [3] it was 53%; in assay [4], 39%; in assay [5] (compound at 1 μM) it was 107%. In addition, the “Histamine Binding (1 μM) H1, percent inhibition of specific binding” value in assay [3] is given as 54%. The “Inhibition … Dopamine D2L” value in assay [4] amounted to 49%.
Regarding `C=C(Cn1c2c(c3cc(Cl)ccc31)CN(C)CC2)c1cccnc1` [Compound 133, 8-chloro-2,3,4,5-tetrahydro-2-methyl-5-(2-(pyridin-3-yl)allyl)-1H-pyrido[4,3-b]indole], the inhibition at 1 µM turned out to be 96% in assay [1]; 55% in assay [2]; 101% in assay [3]; 29% in assay [4]; 96% in assay [5] (compound at 1 μM).
For `CN1CCc2c(c3cc(Cl)ccc3n2/C=C(/c2ccc(F)cc2)C2CC2)C1` [Compound 110, (E)-8-chloro-5-(2-cyclopropyl-2-(4-fluorophenyl)vinyl)-2,3,4,5-tetrahydro-2-methyl-1H-pyrido[4,3-b]indole], the inhibition at 0.1 µM in assay [1] is 102%; in assay [5], 99%. Also, the inhibition at 1 µM is 98% in assay [1]; 86% in assay [2]; 77% in assay [3]; 96% in assay [4]; 101% in assay [5] (compound at 1 μM). Also, the “Histamine Binding (1 μM) H1, percent inhibition of specific binding” value in assay [3] worked out at 83%. In addition, the “Inhibition … Dopamine D2L” value in assay [4] was 98%.
Regarding `C/C(=C\n1c2c(c3cc(Cl)ccc31)CN(C)CC2)c1ccc(Cl)cc1` [Compound 100, (E)-8-chloro-5-(2-(4-chlorophenyl)prop-1-enyl)-2,3,4,5-tetrahydro-2-methyl-1H-pyrido[4,3-b]indole], the inhibition at 0.1 µM in assay [1] is 97%; in assay [5], 104%. Besides, the inhibition at 1 µM in assay [1] stood at 101%; in assay [2], 87%; in assay [3] it was 65%; in assay [4], 67%; in assay [5] (compound at 1 μM), 97%. The “Histamine Binding (1 μM) H1, percent inhibition of specific binding” value in assay [3] is on record as 67%. Also, in assay [4], the “Inhibition … Dopamine D2L” value was 68%.
For `Cc1ccc2c(c1)c1c(n2CC(O)c2cccnc2)CCN(C)C1` (centres unmarked) [Compound 54, 2-(1,2,3,4-tetrahydro-2,8-dimethylpyrido[4,3-b]indol-5-yl)-1-(pyridin-3-yl)ethanol], the inhibition at 1 µM in assay [1] is 42%; in assay [2], 15%; in assay [3], 68%; in assay [4], -4%; in assay [5] (compound at 1 μM) it was 22%.
The corresponding values for `Cc1ccc2c(c1)c1c(n2CC(O)c2ccc(C)nc2)CCN(C)C1` (centres unmarked) [Compound 48, 2-(2,8-dimethyl-3,4-dihydro-1H-pyrido[4,3-b]indol-5(2H)-yl)-1-(6-methylpyridin-3-yl)ethanol] are 73%, 45%, 93%, 8% and 67%.
In the same order, the values of `CNC(=O)C/C(=C\n1c2c(c3cc(C)ccc31)CN(C)CC2)c1ccc(F)cc1` [Compound 207, (E)-4-(2,8-dimethyl-3,4-dihydro-1H-pyrido[4,3-b]indol-5(2H)-yl)-3-(4-fluorophenyl)-N-methylbut-3-enamide] are 97%, 100%, 15%, 12% and 97%.
Regarding `CN1CCc2c(c3cc(Cl)ccc3n2C/C(=C\CCO)c2ccc(F)cc2)C1` [Compound No. 348, (Z)-5-(8-chloro-2-methyl-3,4-dihydro-1H-pyrido[4,3-b]indol-5(2H)-yl)-4-(4-fluorophenyl)pent-3-en-1-ol], in assay [1] (compound at 1 μM, 1 µM), the “Inhibition of ligand binding, Serotonin 5-HT2A (percent inhibition of specific binding)” value is 100%. The inhibition at 1 µM in assay [1] is 99%; in assay [2], 35%; in assay [3], 32%; in assay [4] it was 18%; in assay [5] (compound at 1 μM), 91%. Further, the “Histamine Binding (1 μM) H1, percent inhibition of specific binding” value in assay [3] came out at 38%. Besides, the “Inhibition … Dopamine D2L” value in assay [4] is reported as 29%. Also, the “Inhibition of ligand binding, Serotonin 5-HT2C (percent inhibition of specific binding)” value in assay [5] (compound at 1 μM, 1 µM) turned out to be 95%.
